The source of these data is BindingDB's records for doi:10.1007/s12154-010-0040-8 (Svims University, 2010).

For the assay, the target named is T1, UDP-N-acetylmuramoylalanine--D-glutamate ligase (Leptospira interrogans serogroup Icterohaemorrhagiae serovar Lai (strain 56601), UniProt Q8F7V4).
T1 sequence (Q8F7V4 whole entry): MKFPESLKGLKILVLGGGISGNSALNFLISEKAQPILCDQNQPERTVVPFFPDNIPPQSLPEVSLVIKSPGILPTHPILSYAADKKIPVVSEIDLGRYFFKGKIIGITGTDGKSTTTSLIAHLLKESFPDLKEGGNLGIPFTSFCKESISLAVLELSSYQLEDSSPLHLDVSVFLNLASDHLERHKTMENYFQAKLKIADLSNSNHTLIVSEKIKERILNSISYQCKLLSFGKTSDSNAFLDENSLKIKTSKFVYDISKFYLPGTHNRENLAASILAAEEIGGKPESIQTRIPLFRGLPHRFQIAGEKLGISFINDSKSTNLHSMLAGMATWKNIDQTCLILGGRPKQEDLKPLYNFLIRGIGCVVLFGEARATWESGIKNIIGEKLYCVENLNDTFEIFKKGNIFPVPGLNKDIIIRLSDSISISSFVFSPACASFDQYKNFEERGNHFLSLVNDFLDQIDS
Description: Inhibition Assay. From the text:
Inhibiton assay using MurgD.
As usually defined, the IC50 is the midpoint of a concentration-inhibition curve. Read a low IC50 as greater potency. On to `C[C@@H](NC(=O)C=Cc1ccc2c(c1)OCO2)P(=O)(O)CC(CCC(=O)O)C(=O)O` (stereo partly drawn) [Phosphinate inhibitor 1], for which the IC50 was 95 µM.
`C[C@H](NS(=O)(=O)Cc1ccc([N+](=O)[O-])cc1)C(=O)N[C@@H](C)P(=O)(O)CC(CCC(=O)O)C(=O)O` (stereo partly drawn) [Phosphinate inhibitor 2] showed an IC50 of 78 µM.
Then `O=C(O)c1cc(C(=O)O)cc(-c2ccc(/C=C3\SC(=S)N(c4ccc5c(c4)OCO5)C3=O)o2)c1` [Benzene 1,3-dicarvboxylic acid inhibitor], with 270 µM.
